What was measured:
[1] = Binding affinity to delta opioid receptor in guinea pig forebrain; design: species or system Cavia porcellus
Mus musculus = test: Antinociceptive activity in sc dosed mouse assessed as attenuation of acetic acid-induced writhing per 10 mins; format: functional

O=C1CC[C@@]2(O)[C@H]3Cc4ccc(O)c5c4[C@@]2(CCN3CC2CC2)[C@H]1O5 [NALTREXONE]
Ki [1]: 0.0207 µM

CC(C)CN1CC[C@]23c4c5ccc(O)c4O[C@H]2C(=O)CC[C@@]3(O)[C@H]1C5
Ki [1]: 0.229 µM
Activity (Mus musculus): Dose-dependent effect
ED50 (Mus musculus): 5.05 mg/kg
